# Values of other authors in patent publication US20240325432A1, “COMPOSITION AND METHODS OF TREATMENT USING TRANSDERMAL SUPPLEMENTATION” (Xygenyx Inc., priority 2023, published 2024).
# Assays:
# [1] = as penetration enhancer
# [2] = system: wide dynamic range neurons in the ventroposterolateral nucleus of the thalamus; details: believed
# [3] = system: F2-isoprostane; details: 1600-3200 IU/day
# [4] = compared to α-tocopherol = 1.0
# [5] = system: rheumatoid arthritis; details: arthritic subjects
# [6] = even when dietary intake occurs in equal portions
# [7] = system: markers of inflammation in the blood; details: individuals with metabolic syndrome
# [8] = in vivo
compound,measurement,setting,value
CC(C)[C@@H]1CC[C@@H](C)C[C@H]1O [Menthol],increase of transdermal drug uptake (factor),[1],≥ 10
"CCCCCc1cc(O)c2c(c1)OC(C)(C)C1CCC(C)=CC21 (stereo not drawn) [THC, Δ-9-tetrahydrocannabinol]",analgesic power relative to morphine,[2],ten times more powerful than morphine
"CC12CCC(CC1)C(C)(C)O2 [eucalyptol, 1,8-epoxy-p-menthane]",increase of transdermal drug uptake (factor),[1],more than 10
Cc1c(C)c2c(c(C)c1O)CC[C@@](C)(CCC[C@H](C)CCC[C@H](C)CCCC(C)C)O2 [α-tocopherol],reduction in the development of age-related cataracts,400-500 IU in combination with 10-20 mg β-carotene and 400-500 mg vitamin C,23%
same,reduction of risk of coronary disease,"dietary supplementation, doses up to 400 IU/day",up to 34%
same,reduction of risk of developing neurodegenerative diseases (Alzheimer's Syndrome or dementia),"dietary supplementation, doses up to 400 IU/day, controlled trials",≤ 24%
same,blood plasma concentration of F2-isoprostane,[3],significantly lower
same,relative biological activity,[4],1.0
C=C1CC/C=C(\C)CC[C@@H]2[C@@H]1CC2(C)C [β-caryophyllene],swelling of joints and lymph nodes,[5],reduced swelling of joints and lymph nodes
Cc1cc(O)c(C)c2c1O[C@](C)(CCC[C@H](C)CCC[C@H](C)CCCC(C)C)CC2 [β-tocopherol],relative biological activity,[4],0.5
Cc1c(O)cc2c(c1C)O[C@](C)(CCC[C@H](C)CCC[C@H](C)CCCC(C)C)CC2 [γ-tocopherol],concentration in vivo relative to α-tocopherol,[6],roughly 10%
same,relative biological activity,[4],0.1
Cc1cc(O)cc2c1O[C@](C)(CCC[C@H](C)CCC[C@H](C)CCCC(C)C)CC2 [δ-tocopherol],relative biological activity,[4],0.03
same,markers of inflammation in the blood,[7],reduced markers of inflammation
HGH: hormone comprising a peptide chain that is synthesized in the pituitary gland,biological half-life,[8],10-20 minutes
